pIC50: −log10 of the molar value. Like-named read-outs stand apart in the source and are kept apart here.
Legend:
CaMKK2 = CaMKK2 (Homo sapiens (Human), UniProt Q96RR4); test: KiNativ assay; format: binding; conditions: H929 live cell
Method: (§1) Biochemical IC50s of the compounds of the present disclosure against various kinases were measured in a KiNativ assay. Compounds were screened in duplicate at 10 μM in H929 live cell. IC50 was measured via Mass spectroscopy (MS).

TAO1, TAO3 = test: KiNativ assay; format: binding; conditions: H929 live cell
Method: as §1

PIP4K2A = PIP4K2A (Homo sapiens (Human), UniProt P48426); test: KiNativ assay; format: binding; conditions: H929 live cell
Method: as §1

IKKa = IKKa (Homo sapiens (Human), UniProt O15111); test: KiNativ assay; format: binding; conditions: H929 live cell
Method: as §1

MLKL = MLKL (Homo sapiens (Human), UniProt Q8NB16); test: KiNativ assay; format: binding; conditions: H929 live cell
Method: as §1

SMG1 = SMG1 (Homo sapiens (Human), UniProt Q96Q15); test: KiNativ assay; format: binding; conditions: H929 live cell
Method: as §1

RSK2 domain1 = RSK2 domain1 (Homo sapiens (Human), UniProt P51812); test: KiNativ assay; format: binding; conditions: H929 live cell
Method: as §1

PKCz = PKCz (Homo sapiens (Human), UniProt Q05513); test: KiNativ assay; format: binding; conditions: H929 live cell
Method: as §1

MARK2 = MARK2 (Homo sapiens (Human), UniProt Q7KZI7); test: KiNativ assay; format: binding; conditions: H929 live cell
Method: as §1

RSKL1 = RSKL1 (Homo sapiens (Human), UniProt Q96S38); test: KiNativ assay; format: binding; conditions: H929 live cell
Method: as §1

PHKg2 = PHKg2 (Homo sapiens (Human), UniProt P15735); test: KiNativ assay; format: binding; conditions: H929 live cell
Method: as §1

AurA, AurB, AurC = test: KiNativ assay; format: binding; conditions: H929 live cell
Method: as §1

CK1g3 = CK1g3 (Homo sapiens (Human), UniProt Q9Y6M4); test: KiNativ assay; format: binding; conditions: H929 live cell
Method: as §1

PKD3 = PKD3 (Homo sapiens (Human), UniProt O94806); test: KiNativ assay; format: binding; conditions: H929 live cell
Method: as §1

MST4 = test: KiNativ assay; format: binding; conditions: H929 live cell
Method: as §1

IKKe, TBK1 = test: KiNativ assay; format: binding; conditions: H929 live cell
Method: as §1

[1] = test system: RSK1 domain1, RSK2 domain1, RSK3 domain1; test: KiNativ assay; format: binding; conditions: H929 live cell
Method: as §1

SRPK2 = SRPK2 (Homo sapiens (Human), UniProt P78362); test: KiNativ assay; format: binding; conditions: H929 live cell
Method: as §1

FYN, SRC, YES = test: KiNativ assay; format: binding; conditions: H929 live cell
Method: as §1

TLK1 = TLK1 (Homo sapiens (Human), UniProt Q9UKI8); test: KiNativ assay; format: binding; conditions: H929 live cell
Method: as §1

EphB2 = EphB2 (Homo sapiens (Human), UniProt P29323); test: KiNativ assay; format: binding; conditions: H929 live cell
Method: as §1

RSK1 domain1 = RSK1 domain1 (Homo sapiens (Human), UniProt Q15418); test: KiNativ assay; format: binding; conditions: H929 live cell
Method: as §1

SGK3 = SGK3 (Homo sapiens (Human), UniProt Q96BR1); test: KiNativ assay; format: binding; conditions: H929 live cell
Method: as §1

NEK8 = NEK8 (Homo sapiens (Human), UniProt Q86SG6); test: KiNativ assay; format: binding; conditions: H929 live cell
Method: as §1

MAP2K6 = MAP2K6 (Homo sapiens (Human), UniProt P52564); test: KiNativ assay; format: binding; conditions: H929 live cell
Method: as §1

TLK2 = TLK2 (Homo sapiens (Human), UniProt Q86UE8); test: KiNativ assay; format: binding; conditions: H929 live cell
Method: as §1

Wnk1, Wnk2, Wnk3 = test: KiNativ assay; format: binding; conditions: H929 live cell
Method: as §1

STK4 (MST1) = STK4 (MST1) (Homo sapiens (Human), UniProt Q13043); test: Z-lyte biochemical IC50 assay (Invitrogen); conditions: ATP concentration matched the Km
Procedure, shortened: (§2)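 FRET-based Z-lyte kinase assays run at Invitrogen, ATP at each kinase's Km; for STK4, 6.25-160 ng enzyme with 2 μM Ser/Thr 07 peptide in HEPES pH 7.5, MgCl2, EGTA, Brij-35, 1 h reaction then development reagent. 10-point 3-fold titration from 10 μM.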

STK24 (MST3) = STK24 (MST3) (Homo sapiens (Human), UniProt Q9Y6E0); test: Z-lyte biochemical IC50 assay (Invitrogen); conditions: ATP concentration matched the Km
Procedure, shortened: as §2

[2] = range class, read-out: % inhibition

MAP2K6, sequence (P52564 whole entry): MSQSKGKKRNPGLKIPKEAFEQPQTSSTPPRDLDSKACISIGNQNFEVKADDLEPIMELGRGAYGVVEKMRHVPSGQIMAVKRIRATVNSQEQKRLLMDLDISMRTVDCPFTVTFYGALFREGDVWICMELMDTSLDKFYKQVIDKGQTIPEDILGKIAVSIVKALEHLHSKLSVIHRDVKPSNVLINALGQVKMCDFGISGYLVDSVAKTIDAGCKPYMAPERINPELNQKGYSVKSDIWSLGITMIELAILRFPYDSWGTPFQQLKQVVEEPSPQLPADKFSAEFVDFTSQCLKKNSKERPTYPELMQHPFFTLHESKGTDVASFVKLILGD
RSKL1, sequence (Q96S38 whole entry): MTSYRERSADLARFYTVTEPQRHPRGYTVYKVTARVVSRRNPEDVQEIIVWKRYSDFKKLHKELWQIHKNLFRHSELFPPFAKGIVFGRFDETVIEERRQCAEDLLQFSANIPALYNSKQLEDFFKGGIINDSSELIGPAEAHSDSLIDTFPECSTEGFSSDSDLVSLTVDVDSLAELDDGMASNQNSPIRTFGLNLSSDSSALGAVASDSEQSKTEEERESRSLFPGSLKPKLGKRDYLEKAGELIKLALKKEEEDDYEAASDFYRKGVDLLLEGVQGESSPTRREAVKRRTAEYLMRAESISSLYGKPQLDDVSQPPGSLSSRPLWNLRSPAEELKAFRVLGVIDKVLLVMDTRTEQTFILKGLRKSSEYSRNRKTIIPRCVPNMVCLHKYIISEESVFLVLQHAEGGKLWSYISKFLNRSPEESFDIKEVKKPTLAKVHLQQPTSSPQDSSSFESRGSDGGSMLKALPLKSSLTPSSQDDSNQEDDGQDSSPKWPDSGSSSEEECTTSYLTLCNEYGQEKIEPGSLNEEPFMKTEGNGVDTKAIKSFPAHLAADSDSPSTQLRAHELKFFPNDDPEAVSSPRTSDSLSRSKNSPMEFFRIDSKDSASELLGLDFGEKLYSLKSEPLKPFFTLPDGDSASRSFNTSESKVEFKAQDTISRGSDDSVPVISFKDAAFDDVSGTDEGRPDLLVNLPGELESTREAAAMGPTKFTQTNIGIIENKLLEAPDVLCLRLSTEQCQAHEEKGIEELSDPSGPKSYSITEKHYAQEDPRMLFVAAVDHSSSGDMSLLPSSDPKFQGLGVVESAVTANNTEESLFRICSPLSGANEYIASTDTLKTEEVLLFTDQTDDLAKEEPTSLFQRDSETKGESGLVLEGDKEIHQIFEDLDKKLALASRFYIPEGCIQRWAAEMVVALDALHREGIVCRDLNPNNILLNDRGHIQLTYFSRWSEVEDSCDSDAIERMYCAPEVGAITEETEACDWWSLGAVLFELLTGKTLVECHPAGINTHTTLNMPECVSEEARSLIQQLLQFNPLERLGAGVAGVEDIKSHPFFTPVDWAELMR
PIP4K2A, sequence (P48426 whole entry): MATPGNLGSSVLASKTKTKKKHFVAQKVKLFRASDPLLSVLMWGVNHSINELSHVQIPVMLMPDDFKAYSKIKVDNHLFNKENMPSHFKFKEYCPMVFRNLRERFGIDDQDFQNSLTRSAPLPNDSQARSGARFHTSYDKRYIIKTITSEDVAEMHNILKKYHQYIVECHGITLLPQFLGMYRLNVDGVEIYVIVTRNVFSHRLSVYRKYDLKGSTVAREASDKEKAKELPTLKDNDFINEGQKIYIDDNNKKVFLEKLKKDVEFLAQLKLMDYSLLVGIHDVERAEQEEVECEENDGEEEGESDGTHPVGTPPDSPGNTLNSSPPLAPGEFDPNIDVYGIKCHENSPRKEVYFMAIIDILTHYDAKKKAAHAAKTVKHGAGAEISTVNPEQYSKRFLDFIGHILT
CK1g3, sequence (Q9Y6M4 whole entry): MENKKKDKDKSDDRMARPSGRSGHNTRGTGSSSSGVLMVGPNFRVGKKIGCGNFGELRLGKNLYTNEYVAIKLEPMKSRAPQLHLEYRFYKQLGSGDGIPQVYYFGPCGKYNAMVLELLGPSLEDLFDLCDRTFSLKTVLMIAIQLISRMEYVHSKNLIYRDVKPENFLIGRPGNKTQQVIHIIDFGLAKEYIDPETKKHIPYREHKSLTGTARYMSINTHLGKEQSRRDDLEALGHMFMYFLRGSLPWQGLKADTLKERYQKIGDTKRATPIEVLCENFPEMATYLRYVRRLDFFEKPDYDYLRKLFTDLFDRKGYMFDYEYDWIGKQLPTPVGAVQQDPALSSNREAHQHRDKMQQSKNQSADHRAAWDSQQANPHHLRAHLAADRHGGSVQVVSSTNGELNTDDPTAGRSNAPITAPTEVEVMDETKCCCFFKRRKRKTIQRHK
TLK2, sequence (Q86UE8 whole entry): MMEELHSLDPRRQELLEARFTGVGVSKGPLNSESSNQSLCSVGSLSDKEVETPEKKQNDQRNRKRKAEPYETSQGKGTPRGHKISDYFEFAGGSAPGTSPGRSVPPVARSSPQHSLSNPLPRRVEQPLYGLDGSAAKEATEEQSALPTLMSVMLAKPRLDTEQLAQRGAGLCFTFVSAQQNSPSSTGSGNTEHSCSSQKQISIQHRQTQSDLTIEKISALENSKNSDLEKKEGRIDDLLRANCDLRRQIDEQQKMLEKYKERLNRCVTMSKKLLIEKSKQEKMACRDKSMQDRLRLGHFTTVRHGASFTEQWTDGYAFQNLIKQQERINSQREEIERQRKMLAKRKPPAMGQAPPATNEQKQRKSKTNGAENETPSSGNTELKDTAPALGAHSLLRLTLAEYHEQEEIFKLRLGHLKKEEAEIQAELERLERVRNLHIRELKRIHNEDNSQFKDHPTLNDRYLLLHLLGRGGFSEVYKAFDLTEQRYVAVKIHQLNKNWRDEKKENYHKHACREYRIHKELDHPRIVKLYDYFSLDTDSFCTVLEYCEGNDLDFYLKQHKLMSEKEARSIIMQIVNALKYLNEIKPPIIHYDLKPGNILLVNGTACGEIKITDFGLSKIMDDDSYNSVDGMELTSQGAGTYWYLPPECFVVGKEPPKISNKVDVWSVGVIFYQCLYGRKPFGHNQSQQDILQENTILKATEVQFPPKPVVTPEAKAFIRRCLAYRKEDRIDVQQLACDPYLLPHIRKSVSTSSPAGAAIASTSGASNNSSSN
PKCz, sequence (Q05513 whole entry): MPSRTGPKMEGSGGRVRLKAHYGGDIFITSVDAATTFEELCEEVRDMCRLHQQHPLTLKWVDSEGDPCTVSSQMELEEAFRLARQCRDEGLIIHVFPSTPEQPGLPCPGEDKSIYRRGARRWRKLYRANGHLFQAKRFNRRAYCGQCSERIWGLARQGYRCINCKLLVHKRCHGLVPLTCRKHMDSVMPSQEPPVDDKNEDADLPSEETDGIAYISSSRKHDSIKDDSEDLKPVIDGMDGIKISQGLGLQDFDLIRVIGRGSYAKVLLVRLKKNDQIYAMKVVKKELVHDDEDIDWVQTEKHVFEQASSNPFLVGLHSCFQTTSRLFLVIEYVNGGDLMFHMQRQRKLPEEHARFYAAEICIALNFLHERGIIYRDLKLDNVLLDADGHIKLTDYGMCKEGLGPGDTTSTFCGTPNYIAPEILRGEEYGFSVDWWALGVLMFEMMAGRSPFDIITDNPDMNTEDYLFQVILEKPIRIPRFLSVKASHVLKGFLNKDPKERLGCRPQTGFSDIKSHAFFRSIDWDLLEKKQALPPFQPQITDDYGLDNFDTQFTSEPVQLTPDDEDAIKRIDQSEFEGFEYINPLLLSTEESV
RSK1 domain1, sequence (Q15418 whole entry, the tested form may be a part): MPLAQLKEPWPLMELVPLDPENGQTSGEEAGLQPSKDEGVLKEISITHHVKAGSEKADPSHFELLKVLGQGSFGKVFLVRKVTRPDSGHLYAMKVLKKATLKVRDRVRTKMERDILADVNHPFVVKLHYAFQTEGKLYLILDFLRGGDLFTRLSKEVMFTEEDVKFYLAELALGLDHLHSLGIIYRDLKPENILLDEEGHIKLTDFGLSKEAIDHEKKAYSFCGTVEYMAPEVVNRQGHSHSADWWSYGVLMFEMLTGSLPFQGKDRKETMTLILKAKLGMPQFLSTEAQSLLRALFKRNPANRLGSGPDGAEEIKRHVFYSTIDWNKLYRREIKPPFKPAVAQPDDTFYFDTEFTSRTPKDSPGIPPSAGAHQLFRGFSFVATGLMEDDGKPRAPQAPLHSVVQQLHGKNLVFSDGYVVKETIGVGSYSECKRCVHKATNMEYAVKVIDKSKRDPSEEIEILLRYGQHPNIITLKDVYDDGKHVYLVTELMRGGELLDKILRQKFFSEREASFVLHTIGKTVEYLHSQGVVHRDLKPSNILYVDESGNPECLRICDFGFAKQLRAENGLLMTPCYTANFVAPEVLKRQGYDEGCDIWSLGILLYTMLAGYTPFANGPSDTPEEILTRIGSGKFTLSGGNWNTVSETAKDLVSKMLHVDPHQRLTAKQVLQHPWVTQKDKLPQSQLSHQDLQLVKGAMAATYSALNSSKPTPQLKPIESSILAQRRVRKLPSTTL
CaMKK2, sequence (Q96RR4 whole entry): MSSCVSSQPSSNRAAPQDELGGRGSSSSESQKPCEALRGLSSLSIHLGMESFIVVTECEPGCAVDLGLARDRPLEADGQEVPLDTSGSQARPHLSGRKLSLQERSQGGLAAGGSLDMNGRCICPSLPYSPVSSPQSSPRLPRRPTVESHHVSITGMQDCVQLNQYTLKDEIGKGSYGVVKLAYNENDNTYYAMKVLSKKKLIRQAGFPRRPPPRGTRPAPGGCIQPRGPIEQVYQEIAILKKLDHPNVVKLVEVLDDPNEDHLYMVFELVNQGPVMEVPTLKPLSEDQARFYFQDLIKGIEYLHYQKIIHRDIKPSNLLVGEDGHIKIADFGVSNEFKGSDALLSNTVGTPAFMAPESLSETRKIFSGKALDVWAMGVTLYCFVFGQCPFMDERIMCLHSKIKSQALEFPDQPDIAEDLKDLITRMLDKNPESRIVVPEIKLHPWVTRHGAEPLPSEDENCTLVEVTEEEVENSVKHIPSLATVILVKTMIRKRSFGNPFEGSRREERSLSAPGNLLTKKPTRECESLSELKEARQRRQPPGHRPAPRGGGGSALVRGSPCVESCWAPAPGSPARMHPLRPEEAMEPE

For `Nc1ncc(-c2ccc(NS(=O)(=O)C3CC3)cc2OC2CCCCC2)cc1-c1ccc2c(c1)CCNC2=O` [Compound I-65, N-(4-(6-amino-5-(1-oxo-1,2,3,4-tetrahydroisoquinolin-6-yl)pyridin-3-yl)-3-(cyclohexyloxy)phenyl) cyclopropanesulfonamide], the inhibition at 10 µM (CaMKK2; [2]) was 75 to 90%, the inhibition at 10 µM (CaMKK2; read-out: inhibition (10 μM)) was 85.6% and the “% inhibition” value (TAO1, TAO3; 10 μM, range class) was 0.0%. For the same molecule, the “inhibition (10 μM)” value (TAO1, TAO3) was 14.4%, the inhibition at 10 µM (PIP4K2A; [2]) was 0% and the inhibition at 10 µM (PIP4K2A; read-out: inhibition (10 μM)) was -4.6%. The inhibition at 10 µM (IKKa; [2]) was 0%, the inhibition at 10 µM (IKKa; read-out: inhibition (10 μM)) was -34.3% and the inhibition at 10 µM (MLKL; [2]) was 0%. The inhibition at 10 µM (MLKL; read-out: inhibition (10 μM)) was 0.2%, the inhibition at 10 µM (SMG1; [2]) was 50 to 75% and the inhibition at 10 µM (SMG1; read-out: inhibition (10 μM)) was 68.8%. It also gave an inhibition at 10 µM (RSK2 domain1; [2]) of 75 to 90%, an inhibition at 10 µM (RSK2 domain1; read-out: inhibition (10 μM)) of 79.4% and an inhibition at 10 µM (PKCz; [2]) of 0%. It also gave an inhibition at 10 µM (PKCz; read-out: inhibition (10 μM)) of -12.4%, an inhibition at 10 µM (MARK2; [2]) of 0% and an inhibition at 10 µM (MARK2; read-out: inhibition (10 μM)) of -45.1%. For the same molecule, the inhibition at 10 µM (RSKL1; [2]) was 0%, the inhibition at 10 µM (RSKL1; read-out: inhibition (10 μM)) was -10.6% and the inhibition at 10 µM (PHKg2; [2]) was 0%. The inhibition at 10 µM (PHKg2; read-out: inhibition (10 μM)) was -64%, the “% inhibition” value (AurA, AurB, AurC; 10 μM, range class) was 35-40% and the “inhibition (10 μM)” value (AurA, AurB, AurC) was 42.9%. For the same molecule, the inhibition at 10 µM (CK1g3; [2]) was 75 to 90%, the inhibition at 10 µM (CK1g3; read-out: inhibition (10 μM)) was 87.2% and the inhibition at 10 µM (PKD3; [2]) was 0%. For the same molecule, the inhibition at 10 µM (PKD3; read-out: inhibition (10 μM)) was -24.2%, the “% inhibition” value (MST4; 10 μM, range class) was 35-40% and the “inhibition (10 μM)” value (MST4) was 47.7%. The “% inhibition” value (IKKe, TBK1; 10 μM, range class) was 75-90%, the “inhibition (10 μM)” value (IKKe, TBK1) was 81.8% and the “% inhibition” value ([1]; 10 μM, range class) was 50-75%. The “inhibition (10 μM)” value [1] was 68.4%, the inhibition at 10 µM (SRPK2; [2]) was 0% and the inhibition at 10 µM (SRPK2; read-out: inhibition (10 μM)) was -29.4%. The “% inhibition” value (FYN, SRC, YES; 10 μM, range class) was 0.0%, the “inhibition (10 μM)” value (FYN, SRC, YES) was −8.4% and the inhibition at 10 µM (TLK1; [2]) was 0%. It also gave an inhibition at 10 µM (TLK1; read-out: inhibition (10 μM)) of -1.2%, an inhibition at 10 µM (EphB2; [2]) of 0% and an inhibition at 10 µM (EphB2; read-out: inhibition (10 μM)) of 20.3%. For the same molecule, the inhibition at 10 µM (RSK1 domain1; [2]) was 50 to 75%, the inhibition at 10 µM (RSK1 domain1; read-out: inhibition (10 μM)) was 59.9% and the inhibition at 10 µM (SGK3; [2]) was 0%. It also gave an inhibition at 10 µM (SGK3; read-out: inhibition (10 μM)) of 13.5%, an inhibition at 10 µM (NEK8; [2]) of 0% and an inhibition at 10 µM (NEK8; read-out: inhibition (10 μM)) of -1.7%. It also gave an inhibition at 10 µM (MAP2K6; [2]) of 0%, an inhibition at 10 µM (MAP2K6; read-out: inhibition (10 μM)) of -15% and an inhibition at 10 µM (TLK2; [2]) of 0%. The inhibition at 10 µM (TLK2; read-out: inhibition (10 μM)) was -3.5%, the “% inhibition” value (Wnk1, Wnk2, Wnk3; 10 μM, range class) was 0.0% and the “inhibition (10 μM)” value (Wnk1, Wnk2, Wnk3) was −8.3%. The pIC50 (STK4 (MST1)) was greater than 7.40 and the pIC50 (STK24 (MST3)) was less than 6.05.

— patent US10710978B2, “STK4 inhibitors for treatment of hematologic malignancies” (Dana-Farber Cancer Institute, Inc., priority 2015, dated 2020)
